The source of these data is patent publication US11672815B2, “Composition for inhibiting immune cell proliferation comprising sialyllactose or derivative thereof and method thereof” (CUPIONE CO., LTD., priority 2017, dated 2023).

Each structure is given as a SMILES string.

One series has as its system human RA-FLS. Briefly: Chemokine, pro-inflammatory cytokine and COX2 expression in stimulated human RA-FLS. It counts as cell-based. To be noted: IL-1β-, IL-6-, IL-17-, and TNF-α-stimulated human RA-FLS; 100 μM or 250 μM, 24 hrs. How it is done:
(§1) Anti-chemokine and anti-inflammatory effects of 3′-sialyllactose were examined. First, purity of mouse FLS was examined by FACS analysis, and then no effects of 3′-sialyllactose on FLS proliferation and cytotoxicity were examined by WST-1 assay (see FIGS. 14A-A to 14A-C). […] Therefore, in a subsequent in vitro experiment, 3′-sialyllactose was used at a concentration of 0 μM to 250 μM. In order to examine effects of 3′-sialyllactose on IL-1β-, IL-6-, IL-17-, and TNF-α-induced chemokines (e.g., CCL2, CCL5, CCL7, CXCL1, CXCL2, and CXCL5), pro-inflammatory cytokines (IL-1, IL-6, and TNF-α), and COX2 expression, IL-1β-, IL-6-, IL-17-, and TNF-α-stimulated human RA-FLS and mouse FLS were treated with 3′-sialyllactose (100 μM or 250 μM) for 24 hrs.

Series [1] relates to mouse FLS. The series can be described thus: WST-1 assay on mouse FLS. In kind it is cell-based. The protocol:
as §1
A general note: Tetrazolium assays rely on reduction of a dye to a coloured formazan, in cell work by metabolically active cells.

In another series the test system is chondrocytes. The series can be described thus: Cytotoxicity of sialyllactose on chondrocytes (EZ-Cytox cell viability assay). As to conditions: 0 μM, 10 μM, 50 μM, 100 μM, or 250 μM, 24 hrs. In kind it is cell-based, mouse. The protocol: Chondrocytes were obtained from cartilage tissues derived from femoral heads, femoral condyles, and tibial plateaus of normal mouse at 5 days after birth. The obtained chondrocytes were cultured in DMEM medium (Gibco, USA) containing 10% (v/v) fetal bovine serum (Gibco, USA), 50 μg/ml of streptomycin (Sigma-Aldrich, USA) and 50 unit/ml of penicillin (Sigma-Aldrich, USA).
In order to confirm that 3′- or 6′-sialyllactose has no cytotoxicity on chondrocytes, chondrocytes were cultured in a 96-well culture plate at a density of 9×10^3 cells/well, and then treated with 3′- or 6′-sialyllactose (Genechem Inc., Daejeon, Korea) at a concentration of 0 μM, 10 μM, 50 μM, 100 μM, or 250 μM, followed by incubation in a 5% CO2 incubator at 37° C. for 24 hrs. Cytotoxicity of 3′- or 6′-sialyllactose on chondrocytes was confirmed by measuring absorbance at 450 nm using an EZ-Cytox Cell viability assay kit (DoGen, Korea).

Series [2] concerns synovial tissues of ankle and knee joints. Briefly: Staining of ankle and knee joints in rheumatoid arthritis mice (FLS and immune cell proliferation). It counts as in vivo, mouse.
The test system of series [3] is collagen-induced arthritis (CIA) mouse model. Briefly: Prophylactic effect in collagen-induced arthritis (CIA) mouse model. As to conditions: 100 mg/kg and 500 mg/kg oral, 4 weeks. It counts as in vivo. How it is done: In order to examine prophylactic effects of 3′-sialyllactose during development of arthritis, collagen-induced arthritis (CIA) mouse model was orally administered with 3′-sialyllactose three times a week for 4 weeks at various concentrations (100 mg/kg and 500 mg/kg). In detail, the mouse models immunized day 1 and day 21 were orally administered with 3′-sialyllactose every other days for 4 weeks after second immunization. Control groups were orally administered with PBS, lactose, or sialic acid.

A further series relates to Mmp13. Briefly: Mmp13 expression in IL-1β-treated chondrocytes (qRT-PCR, Western blotting). In kind it is cell-based, mouse. As to conditions: 5 ng/ml of IL-1β, 0 to 250 μM, 24 hrs; concentration-dependent. How it is done:
(§2) IL-1β is a representative inflammatory cytokine that decreases Col2a1 essential for cartilage formation in chondrocytes and also promotes articular inflammation and cartilage tissue destruction. Chondrocytes were treated with 5 ng/ml of IL-1β by time, and then qRT-PCR was performed using conditions and primers of the following Table 1 according to the method of Example 2-1 to examine inhibition of Mmp3 and Mmp13 expression.
(§3) Secretory proteins such as Mmp3 and Mmp13 were allowed to react at 0° C. for 20 min after reacting 900 μl of serum-free medium (conditioned medium) with 100 μl of trichloroacetic acid (TCA). Next, a supernatant was discarded by centrifugation at 12,000 rpm and 4° C. for 10 min, and then reacted with 500 μl of 100% cold acetone at […] for 1 hr. The sample reacting with 100% acetone was centrifuged to discard a supernatant, and proteins were finally precipitated and detected. Western blotting was performed using anti-Mmp3 antibody (Abcam) and anti-Mmp13 antibody (Abcam), and thickness and concentration of Western blot bands were measured by a computer program and relative values thereof were determined by densitometry.

The test system of series [4] is mouse FLS. The series can be described thus: Chemokine, pro-inflammatory cytokine and COX2 expression in stimulated mouse FLS. It counts as cell-based. To be noted: IL-1β-, IL-6-, IL-17-, and TNF-α-stimulated mouse FLS; 100 μM or 250 μM, 24 hrs. The protocol:
as §1

For the next series, the system named is Mmp3. The series can be described thus: Mmp3 expression in IL-1β-treated chondrocytes (qRT-PCR, Western blotting). It counts as cell-based, mouse. As to conditions: 5 ng/ml of IL-1β, 0 to 250 μM, 24 hrs; concentration-dependent. The protocol: as §2, §3
For series [5], the system named is DMM-induced osteoarthritis mouse model. The series can be described thus: DMM-induced osteoarthritis mouse model, oral administration. It counts as in vivo. The protocol: All animal experiments were approved by the Animal Care and Use Committee of the University of Ajou. For osteoarthritis models, 8-week-old male C57BL/6 mice were subjected to destabilization of the medial meniscus (DMM) surgery. Mice knee joints were processed for histological analysis 10 weeks after surgery. In detail, the experimental mice also received gavage feeding of PBS containing 3′-sialyllactose (100 mg/Kg) starting at 2 weeks prior to DMM, and oral feeding on every other day during 4 weeks after surgery, and performed three times a week for total 6 weeks until the end of the experiment. Then, the mice were sacrificed. Control mice were administered with PBS in the same manner.
Knee joints of the mice sacrificed in Example 6-1 were fixed in 4% paraformaldehyde, treated with 0.5 M EDTA (pH 8.0) for 2 weeks, and embedded in paraffin. The paraffin blocks were sectioned at a thickness of 5 μm and serial-sectioned at 40-μm intervals. The paraffin sections were deparaffinized in xylene and hydrated with graded ethanol. Cartilage destruction was detected by Safranin-O staining and scored using the Osteoarthritis Research Society International (OARSI) grading system. Mmp3 (ab52915), Mmp13 (ab51072), Cox2 (SC-1745), pErk ((#9101), IjB (9242), Sox9 (NBP2-24659; Novus, Littleton, USA) and Col2a1 (MAB8887) were immunostained as previously described.

Consider `CC(=O)N[C@H]1C([C@H](O)[C@H](O)CO)O[C@@](O[C@@H]2C(O)[C@H](O[C@@H]3C(CO)OC(O)C(O)[C@H]3O)OC(CO)[C@@H]2O)(C(=O)[O-])C[C@H]1O.[Na+]` (stereo partly shown) [3′-sialyllactose], for which the “expression levels of chemokines, pro-inflammatory cytokines, and COX2” value in the series with human RA-FLS is given as “remarkably decreased”. In the series on mouse FLS [1], the “FLS proliferation and cytotoxicity” value was “no effects”. Besides, in the series with chondrocytes, the cytotoxicity on chondrocytes entry is recorded as “did not show cytotoxicity”. For the same molecule, the “proliferation of macrophages by rheumatoid arthritis” value in series [2] (ankle and knee synovial tissue, anti-CD68 staining) was “significantly decreased”. In [2] (ankle and knee synovial tissue, anti-CD90.2 staining), the “proliferation of FLS by rheumatoid arthritis” value is reported as “significantly decreased”. The “proliferation of neutrophils by rheumatoid arthritis” value in [2] (ankle and knee synovial tissue, elastase staining) is recorded as “significantly decreased”. Further, the “synovial hyperplasia and infiltration of mononuclear cells into the ankle and knee joints” value in series [2] (hematoxylin and Safranin-O staining) is reported as “inhibit”. In addition, in series [3], the “expression of pro-inflammatory cytokines (mouse sera)” value was “decreased” and the “swelling of CIA mouse model” value is “alleviated”. The “Mmp13 expression increased by IL-1β in chondrocytes” value with Mmp13 was “decreased”. The “expression levels of chemokines, pro-inflammatory cytokines, and COX2” value in the series with mouse FLS [4] is “remarkably decreased”. For the same molecule, the “Mmp3 expression increased by IL-1β in chondrocytes” value with Mmp3 is on record as “decreased”. In [5] (100 mg/Kg gavage, 10 weeks after DMM surgery), the “OARSI scores (cartilage destruction) compared with control mouse” value was “remarkably low”. In addition, in series [5] (100 mg/Kg oral, DMM model), the “Cox2 expression (immunohistochemical staining)” value is listed as “decreased”, the “Mmp3 expression (immunohistochemical staining)” value is given as “decreased” and the “Mmp13 expression (immunohistochemical staining)” value was “decreased”.
